In US20220089531A1, “NEW […] ACID DERIVATIVES, PHARMACEUTICALLY ACCEPTABLE SALT THEREOF, COMPOSITION THEREOF AND METHOD OF USE THEREOF” (THE GOVERNING COUNCIL OF THE UNIVERSITY OF TORONTO, priority 2018, published 2022):
Where “and” joins values, the source holds several entries; their conditions need not be identical. Identical values can stand only once. Like-named read-outs stand apart in the source and are kept apart here. Blank lines part the entries; values can stand above or below the molecule they belong to.

Experiments:
MV-4-11 = assay: Cell Titer-Blue cell viability assay, MV-4-11 (AML); assay type: cell-based; conditions: Homo sapiens, MV4-11; AML cell line MV-4-11, 72 hrs exposure
Procedure: (§1) Anti-cancer efficacy of exemplary compounds of this application was assessed in vitro in different cancer cell lines. Cell viability was examined following treatment at various concentration of inhibitor (0.097656-50 μM) using a cell Titer-Blue cell viability assay. 1×10^4 cells/well were plated in 96-well assay plates in culture medium. All cells were grown in DMEM, IMDM and RPMI-1640 supplemented with 10% FBS. After 24 hrs, test compounds and vehicle controls were added to appropriate wells so the final volume was 100 μl in each well. The cells were cultured for the desired test exposure period (72 hrs) at 37° C. and 5% CO2. The assay plates were removed from 37° C. incubator and 20 μl/well of CellTiter-Blue® Reagent was added. The plates were incubated using standard cell culture conditions for 1-4 hours and the plates were shaken for 10 seconds and fluorescence recorded at 560/590 nm.
(§2) Compound I and II were tested for their efficacy against selected chronic myelogenous leukemia, acute myeloid leukemia and healthy human lung cell lines using the protocol stated above.

[1] = Intrinsic clearance in mouse hepatocyte; assay type: in vitro ADME; conditions: mouse, mouse hepatocytes, time points 0-120 minutes, read-out: In vitro T1/2 in mouse hepatocytes
Procedure: (§3) A stock of 100 μM test compound was prepared by diluting the 10 mM test compound in DMSO with a solution of 50% acetonitrile and 50% water. In a 96-well non-coated plate, 198 μL of hepatocytes was pipetted, and the plate was placed in the incubator on an orbital shaker to allow the hepatocytes to warm for 10 minutes. To this solution was added 2 μL of the 100 μM test compound to start the reaction, and the plate was placed on an orbital shaker. At time points of 0, 15, 30, 60, 90 and 120 minutes, the aliquots were mixed with a solution of acetonitrile and internal standard (100 nM alprazolam, 200 nM labetalol, and 2 μM ketoprofen) to terminate the reaction. The reaction solution was then vortexed for 10 minutes and centrifuged at 4,000 rpm for 30 minutes at 4° C. […] of the supernatant was transferred to one new 96-well plate, centrifuged at 4,000 rpm for 30 minutes at 4° C., and 100 μL of the supernatant was transferred to a new 96-well plate ensuring the pellet was not disturbed. 100 μL of ultrapure water was added to all samples for analysis by LC-MS/MS.
(§4) The in vitro half-life (T1/2) was determined by the linear regression of the natural logarithm of the remaining percentage of the parent drug vs. incubation time curve. The slope value (k) of the curve was then substituted into the following equation to determine the in vitro half-life
(§5) The in vitro intrinsic clearance (in vitro CLint, in μL/min/10^6 cells) was determined by the following equation.
(§6) Where volume of incubation=0.2 mL and number of hepatocytes per well=0.1×10^6 cells.
(§7) Bioanalytical method: Column—Phenomenex Synergi 4μ Hydro-PR 80A (2.0×30 mm).
(§8) Mobile phase—0.1% formic acid in water (solvent A) and 0.1% formic acid in acetonitrile (solvent B). Column temperature—room temperature. Injection volume—10 μL. MS analysis—API 4000 instrument from AB Inc (Canada) with an ESI interface.

K562 = assay: Cell Titer-Blue cell viability assay, K562 (CML); assay type: cell-based; conditions: Homo sapiens; CML cell line K562, 72 hrs exposure
Procedure: as §1, §2

MOLM-13 = assay: Cell Titer-Blue cell viability assay, MOLM-13 (AML); assay type: cell-based; conditions: Homo sapiens; AML cell line MOLM-13, 72 hrs exposure
Procedure: as §1, §2

HaCat = assay: Cell Titer-Blue cell viability assay, HaCat (healthy cell line); assay type: cell-based; conditions: Homo sapiens, 72 hrs exposure
Procedure: as §1

MRC-9 = assay: Cell Titer-Blue cell viability assay, MRC-9 (healthy cell line); assay type: cell-based; conditions: Homo sapiens, MRC9; healthy cell line MRC-9, 72 hrs exposure
Procedure: as §1, §2

Mouse Hepatocyte = assay: Intrinsic clearance in mouse hepatocyte; assay type: in vitro ADME; conditions: time points 0-120 minutes
Procedure: as §3, §4, §5, §6, §7, §8

[2] = Bioavailability / PK study in CD-1 mice (IP injection); assay type: in vivo; conditions: 20 mg/kg IP, plasma
Procedure: The study groups for PK for compound I, II and comparative experiments with AC-3-19 and JPX-0371 experiments are shown in Table 2.
All animals had free access to food and water. Dose formulation processing during dosing: The formulations will be kept stirred at room temperature for at least 15 min before dosing and during the dosing. Pharmacokinetics (PK) Schedule shown below in Table 3.
Approximately 0.03 mL blood was collected at each time point. Blood of each sample was transferred into plastic micro centrifuge tubes containing heparin-Na as anticoagulant. Collection tubes with blood samples and anticoagulant were inverted several times for proper mixing of the tube contents and then placed on wet ice prior to centrifugation for plasma. The blood samples were centrifuged at 4000 g for 5 min at 4° C. to obtain plasma. The samples were stored in a freezer at −75±15° C. prior to analysis. The study used CD-1 mice (male), n=3, at age approx. 6-8 weeks (20-30 g).
Concentrations of compounds in the plasma samples were analyzed using a LC-MS/MS method. WinNonlin (Phoenix™, version 6.1). Other similar software could have also been used for pharmacokinetic calculations. Pharmacokinetic parameters were calculated, whenever possible from the plasma concentration versus time data: IP parameters including T1/2, Cmax, Tmax, AUClast, AUCinf, MRT are calculated.

NIH 3T3 = assay: Cell Titer-Blue cell viability assay, NIH 3T3; assay type: cell-based; conditions: Mus musculus, NIH3T3; NIH 3T3 cells, 72 hrs exposure
Procedure: as §1

[3] = system: phosphorylation of Shc, Src, Jak-1/2, Erk1/2 or Akt; conditions: cited from earlier work
[4] = system: non-transformed cells (NIH 3T3 cells, STAT3 null mouse embryo fibroblasts, or mouse thymus stromal cells); conditions: cited from earlier work
[5] = system: xenograft models of lung or breast cancer; conditions: murine xenograft models of lung or breast cancer; cited from earlier work
[6] = male, CD-1, mouse, ip, 20 mg/kg, individual animal
[7] = male, CD-1, mouse, ip, 20 mg/kg, mean N=3
[8] = male, CD-1, mouse, ip, 20 mg/kg, read-out: t1/2 (converted)

Molecule: CC(C)(C)c1cc(CN(C(=O)CN(Cc2ccc(Cl)cc2)S(=O)(=O)c2c(F)c(F)c(F)c(F)c2F)c2ccc(C(=O)O)cc2)cc(C2CC2)c1 [Compound II]
- IC50 (MV-4-11): 480 nM
- half-life at 1 µM [1]: 0.767 h

Molecule: CC(C)(C)c1cc(CN(C(=O)CN(Cc2ccc(Cl)cc2)S(=O)(=O)c2c(F)c(F)c(F)c(F)c2F)c2ccc(C(=O)O)c(O)c2)cc(C2CC2)c1 [Compound I]
- IC50 (K562): 4100 nM
- IC50 (MV-4-11): 560 nM
- IC50 (MOLM-13): 1700 to 2500 nM
- IC50 (HaCat): 20000 nM
- IC50 (MRC-9): 30000 nM
- half-life at 1 µM [1]: 1.67 h
- In vitro T1/2 in mouse hepatocytes (Mouse Hepatocyte): 1.68 h
- AUC Extr ([2]; individual animal, 20 mg/kg): 0.346% and 0.385% and 0.325%
- AUCInf ([2]; individual animal, 20 mg/kg): 7245 ng·h/mL and 6566 ng·h/mL
- AUClast ([2]; individual animal, 20 mg/kg): 7217 ng·h/mL and 6545 ng·h/mL
- Cmax ([2]; individual animal, 20 mg/kg): 3290 ng/mL and 3480 ng/mL
- MRT ([2]; individual animal, 20 mg/kg): 1.99 h and 1.81 h
- t1/2 ([2]; individual animal, 20 mg/kg): 3.91 h and 3.97 h
- AUC Extr ([2]; mean N=3): 0.352%
- AUC(0-inf) [2, 6]: 5820 ng·h/mL
- AUC(0-t) [2, 6]: 5800 ng·h/mL
- Cmax ([2]; male, CD-1, mouse, ip, 20 mg/kg, individual animal, read-out: Cmax): 3010 ng/mL
- MRT ([2]; male, CD-1, mouse, ip, 20 mg/kg, individual animal, read-out: MRT): 1.87 h
- half-life ([2]; male, CD-1, mouse, ip, 20 mg/kg, individual animal, read-out: t1/2 (converted)): 3.92 h
- AUC(0-inf) [2, 7]: 6540 ng·h/mL
- AUC(0-t) [2, 7]: 6520 ng·h/mL
- Cmax ([2]; male, CD-1, mouse, ip, 20 mg/kg, mean N=3, read-out: Cmax): 3260 ng/mL
- MRT ([2]; male, CD-1, mouse, ip, 20 mg/kg, mean N=3, read-out: MRT): 1.89 h
- half-life ([2]; male, CD-1, mouse, ip, 20 mg/kg, mean N=3, read-out: t1/2 (converted)): 3.93 h
- half-life ([2]; male, CD-1, mouse, ip, 20 mg/kg, read-out: calculated T1/2 (FIG. 6) (converted)): 3.9 h
- Tmax ([2]; male, mouse, mean N=3): 0.5 h

Molecule: O=C(O)c1ccc(N(Cc2cccc(C3CCCC3)c2)C(=O)CN(Cc2ccc(Cl)cc2)S(=O)(=O)c2c(F)c(F)c(F)c(F)c2F)cc1O [JPX-062, 4-(2-((N-(4-chlorobenzyl)-2,3,4,5,6-pentafluorophenyl)sulfonamido)-N-(3-cyclopentylbenzyl)acetamido)-2-hydroxybenzoic acid]
- IC50 (MV-4-11): 7900 nM
- IC50 (MOLM-13): 6400 nM
- half-life [2, 8]: 0.94 h

Molecule: BP-1-102
- effect on phosphorylation of Shc, Src, Jak-1/2, Erk1/2 or Akt [3]: little or no effect
- effect on non-transformed cells [4]: no effect
- anti-tumor effect in vivo [5]: dramatic regression in tumor volumes

Second part, led by results:

- IC50 (K562): 2600 nM
- IC50 (MV-4-11): 210 nM
- half-life [2, 8]: 0.35 h
Molecule: O=C(O)c1ccc(N(Cc2cccc(C3CCCC3)c2)C(=O)CN(Cc2c(F)c(F)c(F)c(F)c2F)S(=O)(=O)c2c(F)c(F)c(F)c(F)c2F)cc1 [JPX-303, 4-(N-(3-cyclopentylbenzyl)-2-((2,3,4,5,6-pentafluoro-N-((perfluorophenyl)methyl)phenyl)sulfonamido)acetamido)benzoic acid]
- IC50 (NIH 3T3): 5190 nM

- IC50 (MV-4-11): 930 nM
- IC50 (MOLM-13): 1100 nM
- half-life [2, 8]: 0.31 h
Molecule: O=C(O)c1ccc(N(Cc2cccc(C3CCCC3)c2)C(=O)CN(Cc2ccc(Cl)cc2)S(=O)(=O)c2c(F)c(F)c(F)c(F)c2F)cc1 [JPX-313, 4-(2-((N-(4-chlorobenzyl)-2,3,4,5,6-pentafluorophenyl)sulfonamido)-N-(3-cyclopentylbenzyl)acetamido)benzoic acid]

- IC50 (MV-4-11): 1100 nM
- IC50 (MOLM-13): 800 nM
- half-life [2, 8]: 0.861 h
Molecule: O=C(O)c1ccc(N(Cc2cccc(C3CCCC3)c2)C(=O)CN(Cc2c(F)c(F)c(F)c(F)c2F)S(=O)(=O)c2c(F)c(F)c(F)c(F)c2F)cc1O [JPX-320]
